In brackets after ≈: the same amount, converted by molar mass. Where two headings read alike, the source gives them in different places. One block for each compound: values may come before it.
Experiments:
[1] = test system: F. senegalensis strain CBS132257; assay: CLSI M38-A2 based in vitro susceptibility screening at 25 μM; assay type: cell-based, Falciformispora senegalensis; conditions: selected if >75% (resazurin) or >80% (XTT) fungal growth inhibited
[2] = test system: ten different M. mycetomatis isolates; assay: MIC / MIC50 determination (XTT) in ten M. mycetomatis isolates; assay type: cell-based, Madurella mycetomatis; conditions: Madurella mycetomatis
[3] = test system: M. mycetomatis MM55; assay: IC50 determination, 2-fold dilution series 16 to 0.03125 μM; assay type: cell-based, Madurella mycetomatis; conditions: for IC50 / IC90: Madurella mycetomatis
[4] = test system: M. pseudomycetomatis strain Mex2A; assay: CLSI M38-A2 based in vitro susceptibility screening at 25 μM; assay type: cell-based, Madurella pseudomycetomatis; conditions: selected if >75% (resazurin) or >80% (XTT) fungal growth inhibited
[5] = test system: M. mycetomatis genome strain MM55; assay: CLSI M38-A2 based in vitro susceptibility screening (XTT or resazurin), growth at fixed concentration; assay type: cell-based, Madurella mycetomatis; conditions: for Inhibits growth of Madurella mycetomatis at 25 μM: selected if >75% (resazurin) or >80% (XTT) fungal growth inhibited
[6] = test system: M. tropicana strain CBS206.47; assay: CLSI M38-A2 based in vitro susceptibility screening at 25 μM; assay type: cell-based, Madurella tropicana; conditions: selected if >75% (resazurin) or >80% (XTT) fungal growth inhibited
[7] = test system: Me. romeroi strain CBS128765; assay: as above; assay type: cell-based, Medicopsis romeroi; conditions: selected if >75% (resazurin) or >80% (XTT) fungal growth inhibited
[8] = test system: M. mycetomatis; assay: Drug static or cidal; assay type: cell-based, Madurella mycetomatis
Text: Supplement pntd.0010159.s001.xlsx, sheet "Pandemic Box Master sheet" | column: Drug static or cidal

[9] = test system: M. mycetomatis isolate MM55; assay: M. mycetomatis grain infection model in G. mellonella larvae, survival; assay type: in vivo, Galleria mellonella; set-up: In vivo efficacy, Larvae survival %: concentration or dose not given beside the values
[10] = median MIC over ten M. mycetomatis isolates, no asterisk, read-out: MIC50
[11] = over the isolates tested, read-out: MIC50 mean
[12] = isolate CBS247.48, read-out: MIC CBS247.48
[13] = isolate MM55, read-out: MIC MM55
[14] = MM55, Table 2, M. mycetomatis MM55, read-out: IC50
[15] = MM55, mean, read-out: IC50 mean
[16] = MM55, replicate 1, read-out: IC50 1
[17] = MM55, replicate 1, read-out: IC90 1
[18] = MM55, replicate 2, read-out: IC50 2
[19] = MM55, replicate 2, read-out: IC90 2
[20] = MM55, replicate 3, read-out: IC50 3
[21] = MM55, replicate 3, read-out: IC90 3
[22] = Madurella mycetomatis, mean, read-out: Percentage survival at 25um, 25 uM mean
[23] = Madurella mycetomatis, replicate A, read-out: Percentage survival at 25um, 25 um A
[24] = Madurella mycetomatis, replicate B, read-out: Percentage survival at 25um, 25 uM B
[25] = Madurella mycetomatis, replicate C, read-out: Percentage survival at 25um, 25 uM C
[26] = Madurella mycetomatis, 100 uM, mean, read-out: Percentage survival at 100um, 100 uM mean
[27] = Madurella mycetomatis, 100 uM, replicate (first column), read-out: Percentage survival at 100um, 100 uM A
[28] = Madurella mycetomatis, 100 uM, replicate (second column), read-out: Percentage survival at 100um, 100 uM A
[29] = Madurella mycetomatis, 100 uM, replicate (third column), read-out: Percentage survival at 100um, 100 uM A
[30] = isolate MM14, read-out: MIC MM14
[31] = isolate MM45, read-out: MIC MM45
[32] = isolate ParijsAl1, read-out: MIC ParijsAl1
[33] = isolate Peru72012, read-out: MIC Peru72012

SMILES: COc1cc(C)c2c(Oc3cccc(C(F)(F)F)c3)c(OC)cc(NC(C)CCCN)c2n1 (centres unmarked) [MMV000043, Tafenoquine, reference compound]
Inhibits growth of Falciformispora senegalensis at 25 μM [1]: inhibit the growth
MIC50 [2, 10]: 4 µM (≈ 1.85 µg/mL)
MIC50 [2, 11]: 4 µM (≈ 1.85 µg/mL)
MIC [2, 12]: 8 µM (≈ 3.71 µg/mL)
MIC [2, 13]: 4 µM (≈ 1.85 µg/mL)
MIC ([2]; isolate P1, read-out: MIC P1): 16 µM (≈ 7.42 µg/mL)
MIC ([2]; isolate So1, read-out: MIC So1): 16 µM (≈ 7.42 µg/mL)
MIC ([2]; isolate i1, read-out: MIC i1): 4 µM (≈ 1.85 µg/mL)
MIC ([2]; isolate i11, read-out: MIC i11): 4 µM (≈ 1.85 µg/mL)
Drug static or cidal [3]: Cidal
IC50 [3, 14]: 12.8 µM
IC50 [3, 15]: 12.9 µM
IC90 ([3]; MM55, read-out: IC90 mean): 23.9 µM
IC50 [3, 16]: 11.7 µM
IC90 [3, 17]: 23.5 µM
IC50 [3, 18]: 13.2 µM
IC90 [3, 19]: 23.6 µM
IC50 [3, 20]: 13.8 µM
IC90 [3, 21]: 24.7 µM
Inhibits growth of Madurella pseudomycetomatis at 25 μM [4]: inhibit the growth
Inhibits growth of Madurella mycetomatis at 25 μM [5]: inhibit the growth
activity at 25 µM [5, 22]: 0.788%
activity at 25 µM [5, 23]: -2.31%
activity at 25 µM [5, 24]: 0.422%
activity at 25 µM [5, 25]: 4.25%
activity at 100 µM [5, 26]: 22.7%
activity at 100 µM [5, 27]: 53.1%
activity at 100 µM [5, 28]: 6.69%
activity at 100 µM [5, 29]: 8.3%
Inhibits growth of Madurella tropicana at 25 μM [6]: inhibit the growth
Inhibits growth of Medicopsis romeroi at 25 μM [7]: inhibit the growth

SMILES: CCN(CC)CCn1c(=N)n(CC(O)COc2ccc(Cl)cc2Cl)c2ccccc21 (centres unmarked) [MMV000725]
MIC50 [2, 10]: 16 µM (≈ 7.22 µg/mL)
MIC50 ([2]; ten isolates, read-out: MIC50 mean): < 16 µM
MIC [2, 12]: > 16 µM
MIC [2, 30]: > 16 µM
MIC [2, 31]: > 16 µM
MIC [2, 13]: > 16 µM
MIC ([2]; isolate P1, read-out: MIC P1): > 16 µM
MIC [2, 32]: > 16 µM
MIC [2, 33]: > 16 µM
MIC ([2]; isolate So1, read-out: MIC So1): 16 µM (≈ 7.22 µg/mL)
MIC ([2]; isolate i1, read-out: MIC i1): 16 µM (≈ 7.22 µg/mL)
MIC ([2]; isolate i11, read-out: MIC i11): > 16 µM
IC50 [3, 14]: 8.21 µM
IC50 ([3]; MM55, mean of replicates, read-out: IC50 mean): 8.22 µM
IC90 ([3]; MM55, mean of replicates, read-out: IC90 mean): 18.7 µM
IC50 [3, 16]: 2.8 µM
IC90 [3, 17]: 13.2 µM
IC50 [3, 18]: 9.6 µM
IC90 [3, 19]: 21.1 µM
IC50 [3, 20]: 12.2 µM
IC90 [3, 21]: 21.8 µM
activity at 25 µM ([5]; Madurella mycetomatis, mean of replicates, read-out: Percentage survival at 25um, 25 uM mean): 2.68%
activity at 25 µM [5, 23]: 3.92%
activity at 25 µM [5, 24]: 1.56%
activity at 25 µM [5, 25]: 2.57%
activity at 100 µM ([5]; Madurella mycetomatis, 100 uM, mean of replicates, read-out: Percentage survival at 100um, 100 uM mean): 4.47%
activity at 100 µM ([5]; Madurella mycetomatis, 100 uM, replicate 1, read-out: Percentage survival at 100um, 100 uM A): 4.59%
activity at 100 µM ([5]; Madurella mycetomatis, 100 uM, replicate 2, read-out: Percentage survival at 100um, 100 uM A): 3.57%
activity at 100 µM ([5]; Madurella mycetomatis, 100 uM, replicate 3, read-out: Percentage survival at 100um, 100 uM A): 5.25%
Drug static or cidal [8]: Cidal

SMILES: OC(Cn1cncn1)(Cn1cncn1)c1ccc(F)cc1F [fluconazole]
Inhibits growth of Madurella pseudomycetomatis at 25 μM [4]: inhibit the growth
Inhibits growth of Madurella mycetomatis at 25 μM [5]: not M. mycetomatis and M. tropicana
Inhibits growth of Madurella tropicana at 25 μM [6]: not M. mycetomatis and M. tropicana

More lines, main results first:

MIC50 ([2]; Table 3 and Fig 5, benzimidazole carbamates, M. mycetomatis, read-out: MIC50): 0.5 µM (≈ 0.15 µg/mL)
MIC50 [2, 10]: 2 µM (≈ 0.599 µg/mL)
MIC50 [2, 11]: 0.5 µM (≈ 0.15 µg/mL)
MIC [2, 12]: 0.5 µM (≈ 0.15 µg/mL)
MIC [2, 30]: 0.5 µM (≈ 0.15 µg/mL)
MIC [2, 31]: 0.5 µM (≈ 0.15 µg/mL)
MIC [2, 13]: 0.5 µM (≈ 0.15 µg/mL)
MIC ([2]; isolate P1, read-out: MIC P1): 0.5 µM (≈ 0.15 µg/mL)
MIC [2, 32]: 0.5 µM (≈ 0.15 µg/mL)
MIC [2, 33]: 0.5 µM (≈ 0.15 µg/mL)
MIC ([2]; isolate So1, read-out: MIC So1): 2 µM (≈ 0.599 µg/mL)
MIC ([2]; isolate i1, read-out: MIC i1): 0.25 µM (≈ 0.0748 µg/mL)
MIC ([2]; isolate i11, read-out: MIC i11): 1 µM (≈ 0.299 µg/mL)
IC50 [3, 14]: 2.66 µM
IC50 ([3]; MM55, Table 3, benzimidazole carbamates, M. mycetomatis, read-out: IC50): 2.66 µM
IC50 [3, 15]: 2.66 µM
IC90 ([3]; MM55, read-out: IC90 mean): 9.09 µM
IC50 [3, 16]: 2.58 µM
IC90 [3, 17]: 17 µM
IC50 [3, 18]: 2.52 µM
IC90 [3, 19]: 4.6 µM
IC50 [3, 20]: 2.88 µM
IC90 [3, 21]: 5.68 µM
SMILES: COC(=O)Nc1nc2ccc(Sc3ccccc3)cc2[nH]1 [MMV003143, Fenbendazole]
Inhibits growth of Falciformispora senegalensis at 25 μM [1]: inhibit the growth
Drug static or cidal [3]: Static
Inhibits growth of Madurella pseudomycetomatis at 25 μM [4]: inhibit the growth
Inhibits growth of Madurella mycetomatis at 25 μM [5]: inhibit the growth
activity at 25 µM [5, 22]: 2.38%
activity at 25 µM [5, 23]: -0.759%
activity at 25 µM [5, 24]: 3.53%
activity at 25 µM [5, 25]: 4.38%
activity at 100 µM [5, 26]: 7.16%
activity at 100 µM [5, 27]: 0.376%
activity at 100 µM [5, 28]: 9.19%
activity at 100 µM [5, 29]: 11.9%
Inhibits growth of Madurella tropicana at 25 μM [6]: inhibit the growth
Larvae survival rate on day ten ([9]; 20 μM per larvae at 4, 28, 52 h after infection, day ten): 24.4%
Effect on larvae survival Day 4 (words) ([9]; 20 μM per larvae, vs infected control, day four): Increase survival
Effect on larvae survival Day 10 (words) ([9]; 20 μM per larvae, vs infected control, day ten): Increase survival
Effect on larvae survival Day 10 (words) ([9]; 20 μM per larvae, vs infected control, day ten, listed as fenbendazole): able to increase larvae survival
In vivo efficacy, Enhanced survival compared to control? ([9]; in vivo): yes *
In vivo efficacy, Larvae survival % ([9]; in vivo): 24.4%
Inhibits growth of Medicopsis romeroi at 25 μM [7]: inhibit the growth

IC50 ([3]; MM55, mean of three replicates, read-out: IC50 mean): 17.1 µM
IC50 ([3]; MM55, replicate 1, read-out: IC50 1 um): 21.7 µM
IC90 ([3]; MM55, replicate 1, read-out: IC90 1 um): > 25 µM
IC50 ([3]; MM55, replicate 2, read-out: IC50 2 um): 17.2 µM
IC90 ([3]; MM55, replicate 2, read-out: IC90 2 um): 24.2 µM
IC50 ([3]; MM55, replicate 3, read-out: IC50 3 um): 12.5 µM
IC90 ([3]; MM55, replicate 3, read-out: IC90 3 um): 21.6 µM
SMILES: CCC(C)NCC(O)Cn1c2ccc(Cl)cc2c2cc(Cl)ccc21 (centres unmarked) [MMV1578570]
Inhibits growth of Falciformispora senegalensis at 25 μM [1]: inhibit the growth
Drug static or cidal [3]: Static
Inhibits growth of Madurella pseudomycetomatis at 25 μM [4]: inhibit the growth
Inhibits growth of Madurella mycetomatis at 25 μM [5]: inhibit the growth
activity at 25 µM ([5]; Madurella mycetomatis, mean of three replicates, read-out: Percentage survival at 25um, 25 uM mean): 7.02%
activity at 25 µM [5, 23]: 9.54%
activity at 25 µM [5, 24]: -1.08%
activity at 25 µM [5, 25]: 12.6%
activity at 100 µM ([5]; Madurella mycetomatis, 100 uM, mean of three replicates, read-out: Percentage survival at 100um, 100 uM mean): 3.38%
activity at 100 µM ([5]; Madurella mycetomatis, 100 uM, replicate 1, read-out: Percentage survival at 100um, 100 uM A (first replicate column)): 1.05%
Percent fungal survival at 100 µM ([5]; Madurella mycetomatis, 100 uM, replicate 2, read-out: Percentage survival at 100um, 100 uM A (second replicate column)): 3.75%
activity at 100 µM ([5]; Madurella mycetomatis, 100 uM, replicate 3, read-out: Percentage survival at 100um, 100 uM A (third replicate column)): 5.34%
Inhibits growth of Madurella tropicana at 25 μM [6]: inhibit the growth
Inhibits growth of Medicopsis romeroi at 25 μM [7]: inhibit the growth

— article PMC8815882, “Screening the pandemic response box identified benzimidazole carbamates, Olorofim and ravuconazole as promising drug candidates for the treatment of eumycetoma” (PLoS Neglected Tropical Diseases, 2022)
